Assay results as given in ChEMBL document CHEMBL1201862, “PubChem BioAssay data set” (2004).
One block for each molecule: values may come before it. Calls of active or inactive are those of the source.

Tests used:
[1] = molecular target: T1, G-protein coupled receptor 35 (Homo sapiens, UniProt Q9HC97); assay: SAR analysis of Agonists of the GPR35 Receptor using an Image-Based Assay - Set 3. [Related pubchem assays (depositor defined):AID1961, AID1965]; assay type: functional
Cannabinoid receptor 1 [2] = molecular target: T2, Cannabinoid receptor 1 (Homo sapiens, UniProt P21554); assay: SAR analysis of agonists of the Cannabinoid Receptor 1 using an Image-Based Assay - Set 3. [Related pubchem assays (depositor defined):AID1961, AID1965]; assay type: functional
T2 sequence (P21554 whole entry): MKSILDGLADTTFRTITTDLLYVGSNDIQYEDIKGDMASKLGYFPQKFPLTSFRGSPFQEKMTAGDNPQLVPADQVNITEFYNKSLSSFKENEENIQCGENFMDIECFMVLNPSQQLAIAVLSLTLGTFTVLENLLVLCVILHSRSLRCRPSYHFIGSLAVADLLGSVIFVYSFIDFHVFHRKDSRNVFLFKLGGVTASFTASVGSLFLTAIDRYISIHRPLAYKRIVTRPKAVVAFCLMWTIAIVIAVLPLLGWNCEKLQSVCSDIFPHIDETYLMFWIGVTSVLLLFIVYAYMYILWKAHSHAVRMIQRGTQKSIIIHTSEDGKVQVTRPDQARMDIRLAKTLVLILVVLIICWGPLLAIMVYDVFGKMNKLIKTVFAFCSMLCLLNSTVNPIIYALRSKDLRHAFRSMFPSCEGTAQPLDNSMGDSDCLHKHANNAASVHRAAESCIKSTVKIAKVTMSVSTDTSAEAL

Cannabinoid receptor 2 [3] = molecular target: T3, Cannabinoid receptor 2 (Homo sapiens, UniProt P34972); assay: SAR analysis of antagonists of the Cannabinoid Receptor 2 using an Image-Based Assay - Set 2. [Related pubchem assays (depositor defined):AID1961, AID1965]; assay type: functional
T3 sequence (P34972 whole entry): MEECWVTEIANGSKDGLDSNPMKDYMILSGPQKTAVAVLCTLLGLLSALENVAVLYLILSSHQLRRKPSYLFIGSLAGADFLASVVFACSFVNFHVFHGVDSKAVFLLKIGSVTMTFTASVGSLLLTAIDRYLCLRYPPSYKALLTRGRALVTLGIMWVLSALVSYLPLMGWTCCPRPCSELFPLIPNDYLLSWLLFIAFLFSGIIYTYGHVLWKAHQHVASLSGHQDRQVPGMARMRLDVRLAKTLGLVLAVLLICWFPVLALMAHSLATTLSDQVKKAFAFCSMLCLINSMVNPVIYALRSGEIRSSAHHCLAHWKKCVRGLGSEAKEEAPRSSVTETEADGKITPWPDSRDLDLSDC

Cannabinoid receptor 1 [4] = molecular target: T2, Cannabinoid receptor 1; assay: SAR analysis of antagonists of the Cannabinoid Receptor 1 using an Image-Based Assay - Set 3. [Related pubchem assays (depositor defined):AID1961, AID1965]; assay type: functional
Cannabinoid receptor 2 [5] = molecular target: T3, Cannabinoid receptor 2; assay: SAR analysis of agonists of the Cannabinoid Receptor 2 using an Image-Based Assay - Set 2. [Related pubchem assays (depositor defined):AID1961, AID1965]; assay type: functional
[6] = molecular target: T1, G-protein coupled receptor 35; assay: SAR analysis of Antagonists of the GPR35 Receptor using an Image-Based Assay - Set 4. [Related pubchem assays (depositor defined):[…]]; assay type: functional
[7] = molecular target: G-protein coupled receptor 55 (Homo sapiens, UniProt Q9Y2T6); assay: SAR analysis of selective Agonists of GPR55 using an Image-Based Assay - Set 2. [Related pubchem assays (depositor defined):AID1961, AID1965]; assay type: functional
G-protein coupled receptor 55, sequence (Q9Y2T6 whole entry): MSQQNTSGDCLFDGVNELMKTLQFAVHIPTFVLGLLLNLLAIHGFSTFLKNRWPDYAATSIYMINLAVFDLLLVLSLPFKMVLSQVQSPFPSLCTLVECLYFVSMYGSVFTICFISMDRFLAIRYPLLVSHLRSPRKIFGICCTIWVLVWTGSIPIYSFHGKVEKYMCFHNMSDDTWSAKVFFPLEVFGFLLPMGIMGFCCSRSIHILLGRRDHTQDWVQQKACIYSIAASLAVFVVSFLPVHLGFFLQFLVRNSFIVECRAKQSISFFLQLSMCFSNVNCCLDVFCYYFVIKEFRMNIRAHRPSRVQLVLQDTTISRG

Hexokinase HKDC1 = Hexokinase HKDC1 (Homo sapiens, UniProt Q2TB90); assay: inhibition of HKDC1 glucose phosphorylation – biochemical, W721R variant, dose response (AID 504729); assay type: functional
Hexokinase-1 = Hexokinase-1 (Homo sapiens, UniProt P19367); assay: HK1 enzyme activation by HKDC1 hits – biochemical, selectivity assay for HKDC1 activator project, dose response (AID 504762); assay type: functional
Hexokinase-1, sequence (P19367 whole entry): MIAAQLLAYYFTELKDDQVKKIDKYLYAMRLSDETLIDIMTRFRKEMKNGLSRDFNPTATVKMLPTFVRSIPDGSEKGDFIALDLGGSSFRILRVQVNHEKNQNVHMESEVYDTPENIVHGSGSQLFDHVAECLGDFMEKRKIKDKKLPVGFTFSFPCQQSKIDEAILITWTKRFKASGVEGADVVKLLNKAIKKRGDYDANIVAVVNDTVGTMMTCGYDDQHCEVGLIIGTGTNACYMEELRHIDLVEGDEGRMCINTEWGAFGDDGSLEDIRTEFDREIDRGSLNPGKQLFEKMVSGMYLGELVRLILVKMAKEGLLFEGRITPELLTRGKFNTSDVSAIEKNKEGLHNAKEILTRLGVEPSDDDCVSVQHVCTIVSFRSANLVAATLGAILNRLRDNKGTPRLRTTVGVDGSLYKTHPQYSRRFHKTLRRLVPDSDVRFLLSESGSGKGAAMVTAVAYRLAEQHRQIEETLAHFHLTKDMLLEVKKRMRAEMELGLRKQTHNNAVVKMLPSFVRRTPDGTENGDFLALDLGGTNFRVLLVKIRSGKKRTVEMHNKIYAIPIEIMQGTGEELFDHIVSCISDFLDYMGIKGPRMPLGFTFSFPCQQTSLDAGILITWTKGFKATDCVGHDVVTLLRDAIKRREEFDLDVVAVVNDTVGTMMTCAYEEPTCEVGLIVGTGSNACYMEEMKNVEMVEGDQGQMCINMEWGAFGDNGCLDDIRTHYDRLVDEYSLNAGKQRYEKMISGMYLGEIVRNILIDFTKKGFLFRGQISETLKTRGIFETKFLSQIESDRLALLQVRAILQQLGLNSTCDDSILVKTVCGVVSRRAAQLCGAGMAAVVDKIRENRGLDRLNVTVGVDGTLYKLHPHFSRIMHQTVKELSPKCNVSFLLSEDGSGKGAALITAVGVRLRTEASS

[8] = molecular target: T4, Rac GTPase-activating protein 1 (Homo sapiens, UniProt Q9H0H5); assay: blockers of MgcRacGAP-driven Rac1 GTP hydrolysis – biochemical, ADP Hunter fluorescence, primary and confirmatory, confirmation (AID 624330); assay type: functional
T4 sequence (Q9H0H5 whole entry): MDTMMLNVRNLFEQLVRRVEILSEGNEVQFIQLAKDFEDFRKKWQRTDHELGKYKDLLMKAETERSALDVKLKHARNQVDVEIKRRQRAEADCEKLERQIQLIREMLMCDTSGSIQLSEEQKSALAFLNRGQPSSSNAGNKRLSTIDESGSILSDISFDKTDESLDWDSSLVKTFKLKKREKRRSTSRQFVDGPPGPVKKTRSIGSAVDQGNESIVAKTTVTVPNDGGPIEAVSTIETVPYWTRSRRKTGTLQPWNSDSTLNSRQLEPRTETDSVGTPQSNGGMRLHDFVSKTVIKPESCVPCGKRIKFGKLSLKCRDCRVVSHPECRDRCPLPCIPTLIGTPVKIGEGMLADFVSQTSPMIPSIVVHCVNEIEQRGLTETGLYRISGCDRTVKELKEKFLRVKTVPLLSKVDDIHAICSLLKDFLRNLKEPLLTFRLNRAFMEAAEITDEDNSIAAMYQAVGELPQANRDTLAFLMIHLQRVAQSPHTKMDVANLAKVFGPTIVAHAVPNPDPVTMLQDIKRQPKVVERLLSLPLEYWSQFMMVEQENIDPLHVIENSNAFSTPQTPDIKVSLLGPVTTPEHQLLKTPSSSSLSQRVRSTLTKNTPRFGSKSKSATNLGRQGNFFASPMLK

[9] = molecular target: T5, Eukaryotic translation initiation factor 4H (Homo sapiens, UniProt Q15056); assay: eIF4H binding inhibition – biochemical, uHTS, fluorescence polarization, translation initiation inhibitor project, primary screen (AID 2012)
[10] = molecular target: T6, Polyadenylate-binding protein 1 (Homo sapiens, UniProt P11940); assay: blockers of PABP interaction with poly(A) – biochemical, fluorescence polarization, […] (AID 2014)
T6 sequence (P11940 whole entry): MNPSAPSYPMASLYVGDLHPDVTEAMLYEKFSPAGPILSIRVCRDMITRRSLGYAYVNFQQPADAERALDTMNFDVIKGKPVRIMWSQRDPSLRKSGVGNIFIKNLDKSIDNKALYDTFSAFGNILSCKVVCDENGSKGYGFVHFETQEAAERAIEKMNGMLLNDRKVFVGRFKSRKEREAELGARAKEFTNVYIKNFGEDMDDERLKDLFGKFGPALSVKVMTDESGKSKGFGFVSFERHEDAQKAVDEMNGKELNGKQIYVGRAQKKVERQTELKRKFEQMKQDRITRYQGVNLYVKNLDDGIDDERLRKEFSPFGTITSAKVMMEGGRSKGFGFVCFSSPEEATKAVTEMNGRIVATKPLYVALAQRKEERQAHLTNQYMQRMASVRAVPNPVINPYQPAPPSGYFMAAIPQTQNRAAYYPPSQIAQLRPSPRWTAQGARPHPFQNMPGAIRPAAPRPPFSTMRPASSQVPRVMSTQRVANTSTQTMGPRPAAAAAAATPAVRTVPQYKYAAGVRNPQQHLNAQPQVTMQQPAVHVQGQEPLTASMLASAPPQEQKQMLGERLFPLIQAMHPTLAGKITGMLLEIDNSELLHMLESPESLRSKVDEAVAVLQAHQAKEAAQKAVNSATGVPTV

[11] = molecular target: T7, DNA dC->dU-editing enzyme APOBEC-3G (Homo sapiens, UniProt Q9HC16); assay type: functional
T7 sequence (Q9HC16 whole entry): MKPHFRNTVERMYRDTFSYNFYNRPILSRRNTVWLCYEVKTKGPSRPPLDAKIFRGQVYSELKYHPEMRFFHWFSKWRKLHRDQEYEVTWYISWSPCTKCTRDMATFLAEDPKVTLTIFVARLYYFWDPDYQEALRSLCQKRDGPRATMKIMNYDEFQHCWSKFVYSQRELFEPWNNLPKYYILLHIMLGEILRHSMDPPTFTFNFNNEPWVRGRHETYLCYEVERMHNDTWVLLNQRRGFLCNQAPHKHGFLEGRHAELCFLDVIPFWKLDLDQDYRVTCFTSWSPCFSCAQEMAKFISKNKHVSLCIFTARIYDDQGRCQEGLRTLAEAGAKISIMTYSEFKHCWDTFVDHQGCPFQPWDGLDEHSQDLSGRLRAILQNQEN

[12] = molecular target: T8, DNA dC->dU-editing enzyme APOBEC-3A (Homo sapiens, UniProt P31941); assay: Dose Response confirmation of small molecule APOBEC3A DNA Deaminase Inhibitors via a fluorescence-based single-stranded DNA deaminase assay. [Related pubchem assays (depositor defined):AID493011, AID493024]; assay type: functional
T8 sequence (P31941 whole entry): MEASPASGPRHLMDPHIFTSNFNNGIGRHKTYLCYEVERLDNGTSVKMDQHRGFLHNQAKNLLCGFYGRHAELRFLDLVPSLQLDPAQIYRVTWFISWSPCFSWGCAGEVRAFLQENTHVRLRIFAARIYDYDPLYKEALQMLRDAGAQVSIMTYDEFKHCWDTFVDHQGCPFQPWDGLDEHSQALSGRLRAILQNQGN

[13] = molecular target: T5, Eukaryotic translation initiation factor 4H; assay: inhibitors of translation initiation factor eIF4H – SAR follow-up (AID 435011); assay type: functional
[14] = molecular target: T6, Polyadenylate-binding protein 1; assay: PABP inhibition in translation initiation, SAR follow-up (AID 435018); assay type: functional
[15] = molecular target: Voltage-dependent T-type calcium channel subunit alpha-1H (Homo sapiens, UniProt O95180); assay: human CACNA1H calcium influx blockade – cell-based, synthetic library set 1, calcium flux (AID 493022); assay type: functional
CAAX prenyl protease 2 = CAAX prenyl protease 2 (Saccharomyces cerevisiae S288c, UniProt Q03530); assay type: biochemical
CAAX prenyl protease 2, sequence (Q03530 whole entry): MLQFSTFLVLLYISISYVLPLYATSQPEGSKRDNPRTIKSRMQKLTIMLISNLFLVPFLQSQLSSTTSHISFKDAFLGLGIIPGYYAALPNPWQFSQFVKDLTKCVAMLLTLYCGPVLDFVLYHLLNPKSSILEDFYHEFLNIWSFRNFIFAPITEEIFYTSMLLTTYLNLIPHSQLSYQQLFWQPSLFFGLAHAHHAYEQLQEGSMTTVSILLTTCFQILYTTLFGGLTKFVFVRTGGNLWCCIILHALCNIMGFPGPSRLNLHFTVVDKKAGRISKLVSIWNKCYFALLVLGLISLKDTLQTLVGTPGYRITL

[16] = molecular target: T7, DNA dC->dU-editing enzyme APOBEC-3G; assay: Dose Response confirmation of small molecule APOBEC3G DNA Deaminase Inhibitors via a fluorescence-based single-stranded DNA deaminase assay. [Related pubchem assays (depositor defined):AID493012, AID493028]; assay type: functional
[17] = molecular target: T8, DNA dC->dU-editing enzyme APOBEC-3A; assay: A3A deaminase inhibition for selectivity – biochemical, dose response (AID 504722); assay type: functional

T1 sequence (Q9HC97 whole entry): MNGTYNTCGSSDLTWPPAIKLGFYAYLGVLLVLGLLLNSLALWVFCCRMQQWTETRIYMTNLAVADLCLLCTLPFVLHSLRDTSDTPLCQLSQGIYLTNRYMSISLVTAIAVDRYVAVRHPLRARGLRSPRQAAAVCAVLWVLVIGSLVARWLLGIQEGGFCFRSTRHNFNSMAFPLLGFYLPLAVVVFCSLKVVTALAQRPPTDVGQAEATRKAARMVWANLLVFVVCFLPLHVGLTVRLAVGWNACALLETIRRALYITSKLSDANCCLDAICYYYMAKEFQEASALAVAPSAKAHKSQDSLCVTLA

EC50 [1]: > 32 µM (inactive)
EC50 (Cannabinoid receptor 1 [2]): > 32 µM (inactive)
IC50 (Cannabinoid receptor 2 [3]): > 32 µM (inactive)
IC50 (Cannabinoid receptor 1 [4]): > 32 µM (inactive)
EC50 (Cannabinoid receptor 2 [5]): > 32 µM (inactive)
IC50 [6]: > 32 µM (inactive)
EC50 [7]: > 32 µM (inactive)
SMILES: Cc1cccc(N2CCN(C(=O)c3cccc(S(=O)(=O)N4CCOCC4)c3)CC2)c1C

IC50 (Hexokinase HKDC1): > 80 µM (inactive)
EC50 (Hexokinase-1): > 80 µM (inactive)
IC50 [8]: 160 µM (active)
SMILES: O=C(CNC(=O)c1ccc2c(c1)OCCO2)N/N=C/c1ccc(O)cc1O

SMILES: CCOC(=O)c1ccc2c(c1)N(CC)C(=O)c1ccccc1S2
IC50 [9]: > 100 µM (inactive)
IC50 [10]: 12.2 µM (active)
IC50 [11]: 4.15 µM (active)
IC50 [12]: 2.24 µM (active)
IC50 [13]: 20.7 µM (active)
IC50 [14]: 3.48 µM (active)

EC50 [15]: 10 µM (active)
SMILES: O=C(COc1ccccc1F)Nc1nnc(-c2ccc3c(c2)OCCO3)o1

AC50 (CAAX prenyl protease 2): 6.98 µM (active)
SMILES: CCN(CC)CCN(C(=O)c1cc2ccccc2cc1OC)c1nc2ccc(F)cc2s1

SMILES: CCOCCCn1c(=O)c2ccccc2n2c(S)nnc12
IC50 [16]: 5.54 µM (active)
IC50 [17]: > 100 µM (inactive)
IC50 [8]: 21.9 µM (active)
